The subject of series [1] is CYP1A1 gene. The experiment in a line: Suppression of CYP1A1 gene expression induced by atmospheric dust (quantitative real-time PCR). The series is classed as cell-based, human. The note with it: NHEK; sample 0.001% by mass 24 h, then atmospheric dust (NIST 1648a) 500 μg/mL 48 h; standardized to GAPDH; control without dust = 1; dust + water = 4.11. The procedure:
The effect of the inositol derivative on suppressing the expression of a CYP1A1 gene and a CYP1B1 gene in normal human epidermal keratinocytes (NHEK, manufactured by KURABO INDUSTRIES LTD.) was measured under the following conditions.
The NHEK cells were seeded in a HuMedia KG2 medium manufactured by KURABO INDUSTRIES LTD. at the seeding density of 10000 cells/cm^2, and cultured for 24 hours under the conditions of 37° C. and 5% CO2. […] Using this cDNA as a template, the expression levels of the CYP1A1 gene and the CYP1B1 gene were quantitatively determined by quantitative real-time PCR using primers (QuantiTect Primer Assays, manufactured by QIAGEN) specific to the CYP1A1 gene and the CYP1B1 gene. As an internal standard gene, the expression level of a GAPDH gene, which is a housekeeping gene in which expression fluctuation due to the addition of atmospheric dust is not shown, was quantitatively determined (primer used: Perfect Real Time Primer, manufactured by Takara Bio Inc.), and the expression levels of the CYP1A1 gene and the CYP1B1 gene were standardized based on the expression level of GAPDH. […]
Background: Quantitative PCR measures a nucleic acid by following its amplification.

In series [2] the test system is normal human epidermal keratinocytes (NHEK). Briefly: Effect (1) of suppressing ROS production induced by atmospheric dust (ROS assay kit, fluorescence). The series is classed as cell-based. As for the experimental part: The effect of the inositol derivative on suppressing ROS production in normal human epidermal keratinocytes (NHEK, manufactured by KURABO INDUSTRIES LTD.) was measured under the following conditions. The NHEK cells were seeded in a HuMedia KG2 medium manufactured by KURABO INDUSTRIES LTD. at the seeding density of 10000 cells/cm^2, and cultured for 24 hours under the conditions of 37° C. and 5% CO2. Next, an aqueous solution of the inositol derivative or an aqueous solution of myo-inositol was added to the culture medium so that the final concentration of the inositol derivative or myo-inositol was 0.001% by mass, or water (pure water) was added to the culture medium, and culturing was further performed for 24 hours. Thereafter, 0.1 mL of a DMSO solution of atmospheric dust (NIST 1648a) was added per 100 mL of the culture medium so that the final concentration of the atmospheric dust in the culture medium was 500 μg/mL, and culturing was further performed for 48 hours in the same conditions as above. Thereafter, the ROS production amount was measured using a ROS assay kit (manufactured by OZ BIOSCIENCES). […] After washing the cells with PBS again, 100 μL of PBS was added, and the fluorescence intensity at an excitation wavelength of 485 nm/an absorption wavelength of 535 nm was measured with a microplate reader i-Control (manufactured by Tecan Group Ltd.). […]

Series [3] deals with cell line derived from Lewis lung carcinoma (LLC). Briefly: Effect (1) of suppressing proliferation of cancer cells accelerated by atmospheric dust (WST-8). It counts as cell-based. The note with it: sample 0.001% by mass 24 h, then atmospheric dust 500 μg/mL 48 h, WST-8 absorbance 450 nm relative to control without dust = 1, dust + water = 2.31. The procedure:
The effect of the inositol derivative on suppressing the proliferation of cancer cells in a cell line derived from Lewis lung carcinoma (LLC, JCRB Cell Bank) was measured under the following conditions. The LLC cells were seeded at the seeding density of 50000 cells/cm^2 in a culture medium in which a Ham F 10 medium and an L15 medium (both manufactured by Sigma-Aldrich) were mixed at the ratio of 3:7 (volume ratio), and cultured for 24 hours under the conditions of 37° C. and 5% CO2. Next, an aqueous solution of the inositol derivative or an aqueous solution of myo-inositol was added to the culture medium so that the final concentration of the inositol derivative or myo-inositol was 0.001% by mass, or water (pure water) was added to the culture medium, and culturing was further performed for 24 hours. Thereafter, 0.1 mL of a DMSO solution of atmospheric dust (NIST 1648a) was added per 100 mL of the culture medium so that the final concentration of the atmospheric dust in the culture medium was 500 μg/mL, and culturing was further performed for 48 hours in the same conditions as above. Thereafter, the culture medium was replaced with a medium containing 10% (V/V) of WST-8 of Nacalai Tesque Inc., and after further culturing for 3 hours, the absorbance at the wavelength of 450 nm was measured with a microplate reader i-Control (manufactured by Tecan Group Ltd.). […]
For orientation: Formazan colour is commonly taken as a measure of viable cells.

Each structure is given as a SMILES string.

Consider `O[C@H]1[C@H](O)[C@@H](O)[C@H](O)[C@@H](O)[C@H]1O` [myo-Inositol, myo-inositol], for which, in series [1], the “Relative gene expression level CYP1A1” value turned out to be 3.10. Besides, the “Effect of suppressing ROS production as compared to the water-added group” value in series [2] (0.001% by mass, atmospheric dust 500 μg/mL) was “not recognized”. In addition, the “Relative ROS production amount” value in series [2] (sample 0.001% by mass 24 h, then atmospheric dust 500 μg/mL 48 h, fluorescence relative to control without dust = 1, dust + water = 1.46) came to 1.83. Further, the “Relative cell proliferation amount” value in series [3] was 2.03.

The values above are taken from patent US20220257621A1, “CANCER CELL PROLIFERATION SUPPRESSION AGENT AND COMPOSITION FOR SUPPRESSING PROLIFERATION OF CANCER CELLS” (SHOWA DENKO K.K., priority 2019, published 2022).
